Laboratory results taken from patent US6117841A, “Substituted peptidylamine calcium channel blockers” (Warner-Lambert Company, priority 1999, dated 2000).

How the values were obtained:
N-type Ca^2+ Channel = biological target: T1, N-type Ca^2+ Channel (Homo sapiens, UniProt Q00975); assay: Measurement of N-type Ca2+ channel blocking potencies in IMR-32 cells using the fluorescent Ca2+ indicator Indo-1; assay type: cell-based; conditions: IMR-32 cells, K+ depolarization, 5 μM nitrendipine to block L-type channels; read-out: IMR 32 IC50
T1 construct: host or cells: IMR-32 cells differentiated with dibutyryl cAMP and bromodeoxyuridine
Outline: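 IMR-32 cells were differentiated 7–13 days (1 mM dibutyryl cAMP, 2.5 µM BrdU) and Indo-1-loaded. They were preincubated 10 min at 30 °C with compound and 5 µM nitrendipine in HEPES/Tris pH 7.4 HBSS with 0.5% BSA, then KCl/CaCl2-depolarized. The peak-minus-basal 400/490 nm emission ratio gave IC50 by four-parameter logistic fit.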

DBA/2 mice = assay: In vivo anticonvulsant activity, sound-induced tonic seizures in DBA/2 mice; conditions: tested 15 or 45 minutes after injection; for DBA/2 mice % Protection dose @ 30 mg/kg: 30 mg/kg intravenous
Experimental: A compound of the present invention was dissolved in water using 10% (weight/volume) Emulphor (GAF Corp., Wayne, N.J.) surfactant. Substances were administered by intravenous injection into the retro-orbital venous sinus. All testing was performed 15 minutes or 45 minutes after drug injection. All the male mice, 3-4 weeks old were obtained from Jackson Laboratories Bar Harbour, Me. Immediately before anticonvulsant testing, mice were placed upon a wire mesh, 4 inches square suspended from a steel rod. The square was slowly inverted through 180 degrees and mice observed for 30 seconds. Any mouse falling from the wire mesh was scored as ataxia.
Mice were placed into an enclosed acrylic plastic chamber (21 cm height, approximately 30 cm diameter) with a high-frequency speaker (4 cm diameter) in the center of the top lid. An audio signal generator (Protek model B-810) was used to produce a continuous sinusoidal tone that was swept linearly in frequency between 8 kHz and 16 kHz once each 10 msec. The average sound pressure level (SPL) during stimulation was approximately 100 dB at the floor of the chamber. Mice were placed within the chamber and allowed to acclimatize for 1 minute. DBA/2 mice in the vehicle-treated group responded to the sound stimulus (applied until tonic extension occurred, or for a maximum of 60 sec) with a characteristic seizure sequence consisting of wild running followed by clonic seizures, and later by tonic extension, and finally by respiratory arrest and death in 80% or more of the mice. In vehicle-treated mice, the entire sequence of seizures to respiratory arrest lasts approximately 15-20 seconds.
The incidence of all the seizure phases in the drug-treated and vehicle-treated mice was recorded, and the occurrence of tonic seizures were used for calculatine anticonvulsant ED50 values by probit analysis. Mice were used only once for testing at each time and dose point.

T1 sequence (Q00975 whole entry): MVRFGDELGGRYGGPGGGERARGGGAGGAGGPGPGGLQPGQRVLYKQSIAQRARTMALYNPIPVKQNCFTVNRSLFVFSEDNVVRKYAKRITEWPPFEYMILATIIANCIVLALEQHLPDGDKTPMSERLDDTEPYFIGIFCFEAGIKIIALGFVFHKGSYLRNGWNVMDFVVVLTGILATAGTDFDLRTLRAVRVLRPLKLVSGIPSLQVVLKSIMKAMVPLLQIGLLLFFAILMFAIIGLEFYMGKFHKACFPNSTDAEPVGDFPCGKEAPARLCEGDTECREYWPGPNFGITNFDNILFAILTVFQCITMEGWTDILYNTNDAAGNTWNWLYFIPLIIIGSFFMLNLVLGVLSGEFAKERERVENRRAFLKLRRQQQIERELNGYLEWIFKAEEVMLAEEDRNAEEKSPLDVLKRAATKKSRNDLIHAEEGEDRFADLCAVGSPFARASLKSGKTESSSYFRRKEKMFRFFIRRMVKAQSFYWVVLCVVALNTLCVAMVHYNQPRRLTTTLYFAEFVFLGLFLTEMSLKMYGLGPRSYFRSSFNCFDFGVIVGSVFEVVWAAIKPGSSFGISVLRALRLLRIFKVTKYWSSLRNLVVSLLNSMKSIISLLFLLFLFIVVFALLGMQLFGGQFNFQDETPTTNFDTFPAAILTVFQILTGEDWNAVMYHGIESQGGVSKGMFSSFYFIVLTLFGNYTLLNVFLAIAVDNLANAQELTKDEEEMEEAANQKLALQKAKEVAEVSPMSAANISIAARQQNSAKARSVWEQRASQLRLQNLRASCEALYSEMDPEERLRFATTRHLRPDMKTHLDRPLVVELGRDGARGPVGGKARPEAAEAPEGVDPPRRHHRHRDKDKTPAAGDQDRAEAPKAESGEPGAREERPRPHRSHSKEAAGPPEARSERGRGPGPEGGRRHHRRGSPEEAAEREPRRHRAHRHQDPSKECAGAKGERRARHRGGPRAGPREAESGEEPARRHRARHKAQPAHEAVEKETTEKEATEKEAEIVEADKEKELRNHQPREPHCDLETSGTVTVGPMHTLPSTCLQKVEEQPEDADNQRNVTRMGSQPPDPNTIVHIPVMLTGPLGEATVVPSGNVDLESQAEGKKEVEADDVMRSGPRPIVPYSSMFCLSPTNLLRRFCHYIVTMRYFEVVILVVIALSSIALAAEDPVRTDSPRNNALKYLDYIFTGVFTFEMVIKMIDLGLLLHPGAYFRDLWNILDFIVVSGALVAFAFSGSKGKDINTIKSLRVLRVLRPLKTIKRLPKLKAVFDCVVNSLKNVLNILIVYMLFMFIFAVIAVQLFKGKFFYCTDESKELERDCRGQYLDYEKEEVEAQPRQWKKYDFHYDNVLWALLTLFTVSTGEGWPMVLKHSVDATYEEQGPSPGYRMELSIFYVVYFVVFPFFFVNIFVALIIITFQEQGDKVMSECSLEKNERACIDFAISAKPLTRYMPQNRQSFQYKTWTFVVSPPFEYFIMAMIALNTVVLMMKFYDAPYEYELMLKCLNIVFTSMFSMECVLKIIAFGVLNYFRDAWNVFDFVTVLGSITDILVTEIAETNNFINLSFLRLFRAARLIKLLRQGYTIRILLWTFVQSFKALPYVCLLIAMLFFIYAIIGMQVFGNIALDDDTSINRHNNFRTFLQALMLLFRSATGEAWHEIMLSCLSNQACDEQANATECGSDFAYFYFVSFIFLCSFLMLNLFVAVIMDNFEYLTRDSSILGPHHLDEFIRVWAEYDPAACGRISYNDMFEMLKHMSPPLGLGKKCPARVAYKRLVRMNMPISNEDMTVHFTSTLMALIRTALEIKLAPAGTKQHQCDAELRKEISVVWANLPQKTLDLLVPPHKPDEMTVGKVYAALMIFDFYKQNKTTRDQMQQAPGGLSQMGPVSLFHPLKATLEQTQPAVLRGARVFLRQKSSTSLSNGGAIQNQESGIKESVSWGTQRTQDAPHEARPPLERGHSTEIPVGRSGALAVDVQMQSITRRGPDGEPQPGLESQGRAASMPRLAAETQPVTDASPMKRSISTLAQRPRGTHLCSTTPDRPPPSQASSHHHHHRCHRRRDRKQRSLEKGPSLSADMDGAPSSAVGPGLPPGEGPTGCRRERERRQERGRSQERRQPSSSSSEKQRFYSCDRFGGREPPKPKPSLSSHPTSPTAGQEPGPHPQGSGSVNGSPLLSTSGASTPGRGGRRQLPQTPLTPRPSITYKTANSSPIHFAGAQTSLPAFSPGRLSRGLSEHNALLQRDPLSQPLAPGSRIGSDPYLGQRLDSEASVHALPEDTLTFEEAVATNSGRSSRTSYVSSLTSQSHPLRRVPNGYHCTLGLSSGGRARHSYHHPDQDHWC
T1 sequence (P54284 whole entry partner): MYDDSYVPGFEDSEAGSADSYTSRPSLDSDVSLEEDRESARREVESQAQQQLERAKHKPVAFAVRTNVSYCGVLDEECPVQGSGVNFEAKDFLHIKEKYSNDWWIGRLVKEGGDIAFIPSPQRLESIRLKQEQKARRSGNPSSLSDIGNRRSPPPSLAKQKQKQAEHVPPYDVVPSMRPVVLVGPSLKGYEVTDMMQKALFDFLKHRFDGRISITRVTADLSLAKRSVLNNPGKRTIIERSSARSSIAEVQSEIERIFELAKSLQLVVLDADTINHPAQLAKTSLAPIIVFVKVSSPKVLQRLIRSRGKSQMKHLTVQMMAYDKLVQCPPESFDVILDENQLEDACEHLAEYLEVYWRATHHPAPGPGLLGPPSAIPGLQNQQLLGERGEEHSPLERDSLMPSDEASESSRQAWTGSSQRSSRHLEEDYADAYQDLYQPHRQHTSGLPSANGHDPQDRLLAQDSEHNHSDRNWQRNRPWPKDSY
T1 sequence (P54289 25-946 partner limits assumed): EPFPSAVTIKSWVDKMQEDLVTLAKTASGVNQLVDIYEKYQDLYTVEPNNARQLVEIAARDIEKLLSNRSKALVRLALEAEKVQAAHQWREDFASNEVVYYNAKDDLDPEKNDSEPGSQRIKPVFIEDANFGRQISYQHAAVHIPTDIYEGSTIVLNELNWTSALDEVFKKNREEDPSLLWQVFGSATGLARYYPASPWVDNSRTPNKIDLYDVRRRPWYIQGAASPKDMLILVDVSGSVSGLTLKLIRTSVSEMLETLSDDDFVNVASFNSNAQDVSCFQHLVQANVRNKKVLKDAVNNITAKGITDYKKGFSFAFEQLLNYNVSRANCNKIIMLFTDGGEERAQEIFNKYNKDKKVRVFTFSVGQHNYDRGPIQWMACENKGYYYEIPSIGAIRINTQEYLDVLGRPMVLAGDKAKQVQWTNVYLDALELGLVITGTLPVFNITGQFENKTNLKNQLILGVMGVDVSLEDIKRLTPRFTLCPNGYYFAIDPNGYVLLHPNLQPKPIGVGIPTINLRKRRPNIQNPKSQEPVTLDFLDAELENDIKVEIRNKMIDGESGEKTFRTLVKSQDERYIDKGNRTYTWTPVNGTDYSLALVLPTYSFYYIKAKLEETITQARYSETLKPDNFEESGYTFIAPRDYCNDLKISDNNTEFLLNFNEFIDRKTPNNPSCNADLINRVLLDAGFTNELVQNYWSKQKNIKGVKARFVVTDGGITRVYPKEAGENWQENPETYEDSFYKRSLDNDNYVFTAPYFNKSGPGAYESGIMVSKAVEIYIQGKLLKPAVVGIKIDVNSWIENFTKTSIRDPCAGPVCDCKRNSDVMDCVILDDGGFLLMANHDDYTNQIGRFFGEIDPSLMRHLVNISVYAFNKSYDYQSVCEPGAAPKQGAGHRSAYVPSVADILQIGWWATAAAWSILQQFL
T1 sequence (P54289 947-1103 partner limits assumed): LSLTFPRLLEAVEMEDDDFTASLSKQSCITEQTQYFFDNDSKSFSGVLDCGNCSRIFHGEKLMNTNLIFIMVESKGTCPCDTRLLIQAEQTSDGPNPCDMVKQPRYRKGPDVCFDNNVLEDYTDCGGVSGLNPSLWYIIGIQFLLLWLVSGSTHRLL

SMILES | IC50 (N-type Ca^2+ Channel) [nM] | DBA/2 mice % Protection dose @ 30 mg/kg (DBA/2 mice) [%] | DBA/2 mice % Protection (10 mg/kg) (DBA/2 mice; 10 mg/kg intravenous) [%]
CC(C)CC(C(=O)NC(Cc1ccc(OCc2ccccc2)cc1)C(=O)NC(C)(C)C)N(C)Cc1ccc(C(C)(C)C)cc1 (stereo not drawn) [Example 13, [S-(R*,R*)]-2-[(4-tert-Butyl-benzyl)-methyl-amino]-4-methyl-pentanoic acid [2-(4-benzyloxy-phenyl)-1-tert-butylcarbamoyl-ethyl]-amide] | 40 | 60 | –
CC(C)C[C@@H](C(=O)N[C@@H](Cc1ccc(OCc2ccccc2)cc1)C(=O)NC(C)(C)C)N(C)CCC(C)O (relative stereo) [Example 97, [S-(R*,R*)]-2-[(3-Hydroxy-butyl)-methyl-amino]-4-methyl-pentanoic acid [2-(4-benzyloxy-phenyl)-1-tert-butylcarbamoyl-ethyl]-amide] | 2200 | 40 | –
CC(C)C[C@@H](C(=O)N[C@@H](Cc1ccc(OCc2ccccc2)cc1)C(=O)NC(C)(C)C)N(C)Cc1ccco1 (relative stereo) [Example 90, [S-(R*,R*)]-2-(Furan-2-ylmethyl-methyl-amino)-4-methyl-pentanoic acid [2-(4-benzyloxy-phenyl)-1-tert-butylcarbamoyl-ethyl]-amide] | 900 | 60 | –
CC(C)CCN(C)[C@@H](CC(C)C)C(=O)N[C@H](Cc1ccc(OCc2ccccc2)cc1)C(=O)NC(C)(C)C (relative stereo) [Example 84, [S-(R*,S*)]-4-Methyl-2-[methyl-(3-methyl-butyl)-amino]-pentanoic acid [2-(4-benzyloxy-phenyl)-1-tert-butylcarbamoyl-ethyl]-amide] | 370 | – | 100
